Assay results from US4985547A, “External skin care preparation” (Kao Corporation, priority 1987, dated 1991).

What was measured:
skin roughness = assay: Score of skin roughness, visual ranking after two-week coating on cheeks; assay type: in vivo, women; conditions: average, 4 = severe
From the text: (§1) Compounds Ia1 -Ia18 prepared respectively in Referential Examples 1, 2 and 3 and following the procedures of these referential examples, compounds Ib1 -Ib5 prepared respectively in Referential Example 4 and following the procedure of the referential example, compounds Id1 -Id5 prepared respectively in Referential Example 5 and following the procedure of the referential example, compounds Ie1 -Ie4 prepared respectively in Referential Examples 6-9, and conventional compounds Ic1 -Ic13, Ie5 -Ie14 and II1 -II12 were used separately. Mixtures (Invention Products 1), each of which had been formulated by mixing vaseline and the compound (I or II) at a weight ratio of 3:1, and vaseline (Comparative Product 1) were evaluated in skin conductance and skin roughness by the following methods.
(§2) Chosen as volunteers in winter were 10 women of 20-50 years of old who had skin roughness on their both cheeks. Different external skin care preparations were coated separately on the left and right cheeks of each volunteer for two weeks. On the following day of the completion of the two-week coating test, tests were conducted with respect to the following properties.
Skin roughness was observed visually and ranked in accordance with the following standard. Each score was indicated by an average value.
Score Ranking of skin roughness
0 No skin roughness was observed.
1 Slight skin roughness was observed.
2 Skin roughness was observed.
3 Rather severe skin roughness was observed.
4 Severe skin roughness was observed.
Using separately the compounds used in Example 1, external skin care preparations (emulsified cosmetic preparations) of their corresponding compositions shown below in Table 2 were formulated. Their effects for the improvement of skin roughness were evaluated in the same manner as in Example 1.

horny layer = assay: Skin conductance (water content of horny layer) after two-week coating on cheeks; assay type: in vivo, women; parameters: key: conductance meter reading; ≤5 = severe roughness, ≥20 = no roughness; conditions: Invention Product 1: vaseline and compound 3:1 by weight; two weeks; 20° C., 40% humidity; 5 and smaller = severe roughness, 20 or greater = no substantial roughness
From the text: as §1, §2
After washing the face with warm water of 37° C., each volunteer was allowed to rest for 20 minutes in a room which was air-conditioned at 20° C. and 40% humidity. The water content of their horny layer was measured by a skin conductance meter (manufactured by IBS Company). A smaller conductance value indicates greater skin roughness. Conductance values of 5 and smaller indicate severe skin roughness. On the contrary, no substantial skin roughness is observed where this value is 20 or greater.

[1] = Invention product 2: emulsified cosmetic, compound 1.0 wt. %, glyceryl ether 2.0 wt. %, 0 = none
[2] = Invention product 3: emulsified cosmetic, compound 1.0 wt. %, arginine monocetylphosphate 2.0 wt. %, 0 = none
[3] = Invention product 4: emulsified cosmetic, compound 1.0 wt. %, polyoxyethylene (20) sorbitan stearate 1.0 and sorbitan monostearate 1.0 wt. %, 0 = none

CCCCCCCCCCCCCCCCCCOCC(O)CN(CCOCCO)C(=O)CCCCCCCCCCCCCCCCC (stereo not shown) [Compound Ib5]
Score of skin roughness (skin roughness; [1]): 0.2
Score of skin roughness (skin roughness; [2]): 0.4
Score of skin roughness (skin roughness; [3]): 0.8
Skin conductance (horny layer): 23

CCCCCCCCCCCCCCCCOCC(O)CN(CCCCCCO)C(=O)CCCCCCCCCCCCCCC (stereo not shown) [Compound Ia2, N-(3-hexadecylocy-2-hydroxypropyl)-N-6-hydroxyhexylhexadecanamide]
Score of skin roughness (skin roughness; [1]): 0.3
Score of skin roughness (skin roughness; [2]): 0.5
Score of skin roughness (skin roughness; [3]): 1.0
Skin conductance (horny layer): 18

CCCCCCCCCCCCCCCCOCC(O)CN(C(=O)CCCCCCCCCCCCCCC)C(CCSC)C(=O)O (stereo not shown) [Compound Ic9]
Score of skin roughness (skin roughness; [1]): 0.5
Score of skin roughness (skin roughness; [2]): 0.7
Score of skin roughness (skin roughness; [3]): 1.0
Skin conductance (horny layer): 16

CCCCCCCCCCCCCCCCCCOCC(O)CN(CCO)CC(O)COCCCCCCCCCC (stereo not shown) [Compound II3]
Score of skin roughness (skin roughness; [1]): 0.5
Score of skin roughness (skin roughness; [2]): 0.8
Score of skin roughness (skin roughness; [3]): 1.1
Skin conductance (horny layer): 11

CCCCCCCCCCCCCCCCCCOCC(O)CN(C(=O)CCCCCCCCCCCCCCCCC)C(C)(CO)CO (stereo not shown) [Compound Ia14]
Score of skin roughness (skin roughness; [1]): 0.1
Score of skin roughness (skin roughness; [2]): 0.3
Score of skin roughness (skin roughness; [3]): 0.6
Skin conductance (horny layer): 23

CCCCCCCCCCCCCCCCCCOCC(O)CN(CCCCCCO)C(=O)CCCCCCCCCCCCCCCCC (stereo not shown) [Compound Ia9]
Score of skin roughness (skin roughness; [1]): 0.2
Score of skin roughness (skin roughness; [2]): 0.4
Score of skin roughness (skin roughness; [3]): 0.9
Skin conductance (horny layer): 20

CCCCCCCCCCCCCCCCOCC(CN(CCOP(=O)([O-])OCC[N+](C)(C)C)C(=O)CCCCCCCCCCCCCCC)OP(=O)([O-])OCC[N+](C)(C)C (stereo not shown) [Compound Ie14]
Score of skin roughness (skin roughness; [1]): 1.2
Score of skin roughness (skin roughness; [2]): 1.4
Score of skin roughness (skin roughness; [3]): 1.9
Skin conductance (horny layer): 10

CCCCCCCCCCCCCCCCCC(=O)N(CCO)CC(O)CCCCCCCCCCCCCC (stereo not shown) [Compound Id1, N-(2-hydroxyethyl)-N-2-hydroxyhexa-decyloctadecanamide]
Score of skin roughness (skin roughness; Invention Product 1: vaseline and compound 3:1 by weight, two weeks, 0 = no roughness): 1.0
Score of skin roughness (skin roughness; [1]): 0.2
Score of skin roughness (skin roughness; [2]): 0.4
Score of skin roughness (skin roughness; [3]): 0.7
Skin conductance (horny layer): 21

CCCCCCCCCCCCCCCCCCOCC(O)CN(C(=O)CCCCCCCCCCCCCCCCC)C(C)(C)CO (stereo not shown) [Compound Ia15]
Score of skin roughness (skin roughness; [1]): 0.5
Score of skin roughness (skin roughness; [2]): 0.7
Score of skin roughness (skin roughness; [3]): 1.0
Skin conductance (horny layer): 13

CCCCCCCCCCOCC(O)CN(CCOCCO)C(=O)CCCCCCCCC (stereo not shown) [Compound Ib2]
Score of skin roughness (skin roughness; [1]): 0.8
Score of skin roughness (skin roughness; [2]): 1.0
Score of skin roughness (skin roughness; [3]): 1.2
Skin conductance (horny layer): 10

CCCCCCCCCCCCCCCCCC(=O)N(CC(=O)O)CC(O)COCCCCCCCCCCCCCC (stereo not shown) [Compound Ic1]
Score of skin roughness (skin roughness; [1]): 0.7
Score of skin roughness (skin roughness; [2]): 0.9
Score of skin roughness (skin roughness; [3]): 1.2
Skin conductance (horny layer): 14

CCCCCCCCCCOCC(O)CN(CC(O)COCCCCCCCCCC)C(C)=O (stereo not shown) [Compound II10]
Score of skin roughness (skin roughness; [1]): 0.8
Score of skin roughness (skin roughness; [2]): 1.1
Score of skin roughness (skin roughness; [3]): 1.2
Skin conductance (horny layer): 9

CCCCCCCCCCCCCCCCOCC(CN(CCO)C(=O)CCCCCCCCCCCCCCC)OP(=O)([O-])OCC[N+](C)(C)C (stereo not shown) [Compound Ie13]
Score of skin roughness (skin roughness; [1]): 0.9
Score of skin roughness (skin roughness; [2]): 1.1
Score of skin roughness (skin roughness; [3]): 1.5
Skin conductance (horny layer): 11

CCCCCCCCCCCCCCCCCC(=O)N(CCCCCCO)CC(O)COCCCCCCCCCC (stereo not shown) [Compound Ia7]
Score of skin roughness (skin roughness; [1]): 0.6
Score of skin roughness (skin roughness; [2]): 0.9
Score of skin roughness (skin roughness; [3]): 1.2
Skin conductance (horny layer): 11

CCCCCCCCCCCCCCCCCCOCC(O)CN(CC(=O)O)CC(O)COCCCCCCCCCCCCCCCCCC (stereo not shown) [Compound II8]
Score of skin roughness (skin roughness; [1]): 0.2
Score of skin roughness (skin roughness; [2]): 0.4
Score of skin roughness (skin roughness; [3]): 0.8
Skin conductance (horny layer): 20

CCCCCCCCCCCCCCCCCCOCC(O)CN(CC(O)COCCCCCCCCCC)C(C)=O (stereo not shown) [Compound II11]
Score of skin roughness (skin roughness; [1]): 0.4
Score of skin roughness (skin roughness; [2]): 0.8
Score of skin roughness (skin roughness; [3]): 1.2
Skin conductance (horny layer): 12

CCCCCCCC/C=C\CCCCCCCCOCC(O)CN(CCOP(=O)([O-])OCC[N+](C)(C)C)C(=O)CCCCCCCCCCCCCCCCC (stereo not shown) [Compound Ie12]
Score of skin roughness (skin roughness; [1]): 0.9
Score of skin roughness (skin roughness; [2]): 0.9
Score of skin roughness (skin roughness; [3]): 1.5
Skin conductance (horny layer): 13

CCCCCCCCCCCCCCCCCCOCC(O)CN(CCCO)C(=O)CCCCCCCCC (stereo not shown) [Compound Ia5]
Score of skin roughness (skin roughness; [1]): 0.3
Score of skin roughness (skin roughness; [2]): 0.5
Score of skin roughness (skin roughness; [3]): 1.0
Skin conductance (horny layer): 17

CCCCCCCCCCCCCCCCOCC(O)CN(CC(=O)O)CC(O)COCCCCCCCCCCCCCCCC (stereo not shown) [Compound II9]
Score of skin roughness (skin roughness; [1]): 0.1
Score of skin roughness (skin roughness; [2]): 0.3
Score of skin roughness (skin roughness; [3]): 0.9
Skin conductance (horny layer): 17

CCCCCCCCCCCCCCCCOCC(O)CN(C(=O)CCCCCCCCCCCCCCC)C(CCC(=O)O)C(=O)O (stereo not shown) [Compound Ic11]
Score of skin roughness (skin roughness; [1]): 0.8
Score of skin roughness (skin roughness; [2]): 1.0
Score of skin roughness (skin roughness; [3]): 1.3
Skin conductance (horny layer): 13

CCCCCCCCCCCCCCCCOCC(O)CN(CC(O)CO)C(=O)CCCCCCCCCCCCCCC (stereo not shown) [Compound Ia10, N-(3-hexadecyloxy-2-hydroxypropyl)-N-2,3-dihydroxypropylhexadecanamide]
Score of skin roughness (skin roughness; [1]): 0.1
Score of skin roughness (skin roughness; [2]): 0.3
Score of skin roughness (skin roughness; [3]): 0.6
Skin conductance (horny layer): 22

CCCCCCCCCCCCCCCCCC(=O)N(CC(O)CO)CC(O)COCCCCCCCCCC (stereo not shown) [Compound Ia11]
Score of skin roughness (skin roughness; [1]): 0.3
Score of skin roughness (skin roughness; [2]): 0.5
Score of skin roughness (skin roughness; [3]): 0.8
Skin conductance (horny layer): 19

CCCCCCCCCCCCCCCCOCC(O)CN(CCCO)C(=O)CCCCCCCCCCCCCCC (stereo not shown) [Compound Ia1, N-(3-hexadecyloxy-2-hydroxypropyl)-N-3-hydroxypropylhexadecanamide]
Score of skin roughness (skin roughness; [1]): 0.2
Score of skin roughness (skin roughness; [2]): 0.4
Score of skin roughness (skin roughness; [3]): 0.8
Skin conductance (horny layer): 20

CCCCCCCCCCCCCCCCOCC(O)CN(C(=O)CCCCCCCCCCCCCCC)C(C)C(=O)O (stereo not shown) [Compound Ic5]
Score of skin roughness (skin roughness; [1]): 0.8
Score of skin roughness (skin roughness; [2]): 1.0
Score of skin roughness (skin roughness; [3]): 1.3
Skin conductance (horny layer): 13

CCCCCCCCCCCCCCCCOCC(O)CN(C(=O)CCCCCCCCCCCCCCC)C(CC(=O)O)C(=O)O (stereo not shown) [Compound Ic10]
Score of skin roughness (skin roughness; [1]): 0.6
Score of skin roughness (skin roughness; [2]): 0.8
Score of skin roughness (skin roughness; [3]): 1.1
Skin conductance (horny layer): 15

CCCCCCCCCCCCCCCCCC(=O)N(CC(=O)O)CC(O)CCCCCCCCCCCCCCCC (stereo not shown) [Compound Ic4]
Score of skin roughness (skin roughness; [1]): 0.8
Score of skin roughness (skin roughness; [2]): 1.0
Score of skin roughness (skin roughness; [3]): 1.3
Skin conductance (horny layer): 13

CCCCCCCCCCCCCCCCC(O)CN(CCO)C(=O)CCCCCCCCC (stereo not shown) [Compound Id2]
Score of skin roughness (skin roughness; [1]): 0.3
Score of skin roughness (skin roughness; [2]): 0.5
Score of skin roughness (skin roughness; [3]): 0.8
Skin conductance (horny layer): 18

CCCCCCCCCCOCC(O)CN(CC(=O)O)CC(O)COCCCCCCCCCC (stereo not shown) [Compound II6]
Score of skin roughness (skin roughness; [1]): 0.8
Score of skin roughness (skin roughness; [2]): 1.0
Score of skin roughness (skin roughness; [3]): 1.2
Skin conductance (horny layer): 7

CCCCCCCCCCCCCCCCCC(=O)N(CCOCCO)CC(O)COCCCCCCCCCC (stereo not shown) [Compound Ib4]
Score of skin roughness (skin roughness; [1]): 0.4
Score of skin roughness (skin roughness; [2]): 0.6
Score of skin roughness (skin roughness; [3]): 0.9
Skin conductance (horny layer): 17

CCCCCCCCCCOCC(O)CN(CCCO)C(=O)CCCCCCCCC (stereo not shown) [Compound Ia3]
Score of skin roughness (skin roughness; [1]): 0.7
Score of skin roughness (skin roughness; [2]): 1.0
Score of skin roughness (skin roughness; [3]): 1.3
Skin conductance (horny layer): 10

CCCCCCCCCCCCCCCCCC(=O)N(CCCO)CC(O)COCCCCCCCCCC (stereo not shown) [Compound Ia4]
Score of skin roughness (skin roughness; [1]): 0.5
Score of skin roughness (skin roughness; [2]): 0.7
Score of skin roughness (skin roughness; [3]): 1.1
Skin conductance (horny layer): 13

CCCCCCCCCCCCCCCCCCOCC(O)CN(CCCCCCO)C(=O)CCCCCCCCCC (stereo not shown) [Compound Ia8]
Score of skin roughness (skin roughness; [1]): 0.5
Score of skin roughness (skin roughness; [2]): 0.7
Score of skin roughness (skin roughness; [3]): 1.1
Skin conductance (horny layer): 13

CCCCCCCCCCCCCCCCCCOCC(O)CN(CC(O)CO)C(=O)CCCCCCCCC (stereo not shown) [Compound Ia12]
Score of skin roughness (skin roughness; [1]): 0.3
Score of skin roughness (skin roughness; [2]): 0.5
Score of skin roughness (skin roughness; [3]): 0.9
Skin conductance (horny layer): 18
